Experimental data: US11760986B2, “Evolution of proteases” (President and Fellows of Harvard College, priority 2014, dated 2023)

Assays:
[1] = tested on: HCV protease on the HCV PA-RNAP; conditions: host cells incubated with inhibitor 90 min, then HCV protease phage, luminescence after 3 h
Description: Inhibition of PA-RNAP response in host E. coli cells. […] After 3 h of incubation at 37° C., the luminescence of each culture was measured on a Tecan Infinite Pro plate reader and normalized to OD600. In the absence of inhibitor, phage-encoded protease will activate the PA-RNAP leading to robust production of luciferase. Relative dose responses to inhibitors compared to control cells without drug were measured in triplicate.

[2] = tested on: HCV protease D168E; type: biochemical, hepatitis C virus; conditions: D168E versus wild-type HCV protease
Description: (§1) Purification and in vitro assays of evolved HCV variants. HCV protease variants were sub-cloned by Gibson assembly out of the phage genome and into the previously mentioned EP. EPs were transformed into NEB BL21 DE3 chemically competent cells. Starter cultures were grown to saturation, and 2 mL was used to inoculate 500 mL LB. At OD600=0.6, cultures were transferred to 20° C. and induced with 0.5% arabinose for 6 h. Cells were harvested by centrifugation at 5,000 g for 10 m, and resuspended in lysis/bind buffer (50 mM Tris-HCl pH 8.0, 500 mM NaCl, 10% glycerol, 5 mM imidazole). Cells were lysed by sonication for a total of 2 m, and then centrifuged for 20 m at 18,000 g to clarify the lysate. Supernatant was flowed through 0.2 mL His-pur nickel resin spin columns that were equilibrated with binding buffer (Pierce-Thermo). Resin was washed with 4 column volumes of wash buffer (50 mM Tris-HCl pH 8.0, 500 mM NaCl, 10% glycerol, 20 mM imidazole). HCV protease was eluted in 4 column volumes of 50 mM Tris-HCl pH 8.0, 500 mM NaCl, 10% glycerol, 200 mM imidazole. Samples were further purified by size exclusion chromatography on a SuperDex 75 10/300 GL column (GE Healthcare). Size exclusion was performed in 50 mM Tris-HCl pH 8.0, 100 mM NaCl, 10% glycerol, 1 mM DTT. Protein concentrations were determined by UV280 on a Nanodrop machine and calculated using an extinction coefficient of 19,000 cm^−1 M^−1 and a molecular weight of 23 kDa.
(§2) In vitro assays were performed using the commercial HCV RET Substrate 1 (Anaspec), an internally quenched probe that fluoresces upon proteolytic cleavage, according to the manufacturer's instructions. Protease and inhibitors were incubated in assay buffer at room temperature for 5 m prior to addition of substrate. […] The assay buffer contained 50 mM Tris HCl pH 8.0, 100 mM NaCl, 20% glycerol, 5 mM DTT. Assays were performed in triplicate, and initial reaction velocities were calculated and normalized to controls without inhibitor. The data was fit to the Hill Equation using Igor Pro with base and max parameters fixed at one and zero respectively.

[3] = tested on: HCV protease D168Y; assay: biochemical; parameters: species or system hepatitis C virus; conditions: D168Y versus wild-type HCV protease
Description: as §1, §2

[4] = target: HCV protease (Hepatitis C virus genotype 1a, UniProt P27958); conditions: literature value (refs 35, 36); cited from earlier work
[5] = target: T1, HCV protease D168E (Hepatitis C virus genotype 1a, UniProt P27958, L1039E/L1040E/I1043Q/I1044E/L1047Q/C1073S/C1078L/I1098T/Q1106K/P1112Q/L1179I/C1185S/D1194E/N1200S, form not given); type: biochemical; conditions: HCV protease D168E; 40 nM protease, 7.5 μM substrate, 30° C.; IC50±standard deviation
T1 construct: 6xHis-TEVcutsite-HCV protease 2610 . .; fused on or other part: N-terminal Met-6xHis-TEV site, then an NS4A cofactor peptide ([…], about NS4A 21-33 with C22S and V30N); The peptide is fused in front of NS3 residue 4; The helicase domain is absent; the chain ends at NS3 182
Description: as §1, §2

[6] = target: T2, wild-type HCV protease (Hepatitis C virus genotype 1a, UniProt P27958, L1039E/L1040E/I1043Q/I1044E/L1047Q/C1073S/C1078L/I1098T/Q1106K/P1112Q/L1179I/C1185S/N1200S, form not given); assay: In vitro HCV protease inhibition assay with internally quenched fluorescent substrate (HCV RET Substrate 1, Anaspec); type: biochemical; conditions: 40 nM protease, 7.5 μM substrate, 30° C., IC50±standard deviation
T2 construct: 6xHis-TEVcutsite-HCV protease 2610 . .; fused on or other part: N-terminal Met-6xHis-TEV site, then an NS4A cofactor peptide ([…], about NS4A 21-33 with C22S and V30N); The peptide is fused in front of NS3 residue 4; The helicase domain is absent; the chain ends at NS3 182
Description: as §1, with “Resin was washed with 4 column volumes of wash buffer (50 mM Tris-HCl pH 8.0, 500 mM NaCl, 10% glycerol, 20 mM imidazole). HCV protease was eluted in 4 column volumes of 50 mM Tris-HCl pH 8.0, 500 mM NaCl, 10% glycerol, 200 mM imidazole. Samples were further purified by size exclusion chromatography on a SuperDex 75 10/300 GL column (GE Healthcare). Size exclusion was performed in 50 mM Tris-HCl pH 8.0, 100 mM NaCl, 10% glycerol, 1 mM DTT.” left out
In vitro assays were performed using the commercial HCV RET Substrate 1 (Anaspec), an internally quenched probe that fluoresces upon proteolytic cleavage, according to the manufacturer's instructions. […] Assays were performed in triplicate, and initial reaction velocities were calculated and normalized to controls without inhibitor. […]

[7] = target: T3, HCV protease D168Y (Hepatitis C virus genotype 1a, UniProt P27958, C1073S/C1078L/C1185S/D1194Y/I1043Q/I1044E/I1098T/L1039E/L1040E/L1047Q/L1179I/N1200S/P1112Q/Q1106K/T1100M/T1173A); assay: biochemical
T3 construct: 6xHis (N); TEV cleavage site (N); NS4a cofactor peptide (fused in the construct, before NS3) (N); made in house; host or cells: E. coli NEB BL21 DE3
Description: as §1, §2

| SMILES | inhibition of cellular gene expression arising from the activity of HCV protease on the HCV PA-RNAP [1] | increase of the IC50 by the mutation [2] [fold] | increase of the IC50 by the mutation [3] [fold] | IC50 [4] [nM] | IC50 [5] [nM] | IC50 [6] [nM] | IC50 [7] [nM] |
| --- | --- | --- | --- | --- | --- | --- | --- |
| C=C[C@@H]1C[C@]1(NC(=O)[C@@H]1C[C@@H](Oc2ncc(OC)c3ccc(Cl)cc23)CN1C(=O)[C@@H](NC(=O)OC(C)(C)C)C(C)(C)C)C(=O)NS(=O)(=O)C1CC1 [asunaprevir] | in a dose-dependent manner | ~10 | 30 | – | – | – | – |
| CC(C)(C)OC(=O)N[C@H]1CCCCC/C=C\[C@@H]2C[C@@]2(C(=O)NS(=O)(=O)C2CC2)NC(=O)[C@@H]2C[C@@H](OC(=O)N3Cc4cccc(F)c4C3)CN2C1=O [danoprevir] | in a dose-dependent manner | ~30 | ~30 | ~0.3 | 38.9 ± 2.4 | 1.3 ± 0.1 | 34.4 ± 2.8 |
